Experimental data as given in patent publication US20250179047A1, “5-[7-(3,4-DIHYDRO-1H-ISOQUINOLINE-2-CARBONYL)-1,2,3,4 TETRAHYDROISOQUINOLIN-6-YL]-1H-PYRROLE-3-CARBOXAMIDE DERIVATIVES, PHARMACEUTICAL COMPOSITIONS CONTAINING THEM AND THEIR USES AS PRO-APOPTOTIC AGENTS” (LES LABORATOIRES SERVIER, priority 2022, published 2025).

What was measured:
BCL2 D103Y = BCL2 D103Y (Homo sapiens, UniProt P10415, D103Y); experiment: TR-FRET competitive binding assay, BCL2 D103Y; conditions: Ki determined from IC50, read-out: TR_FRET EKI_Bcl2 D103Y
Summary of the method: (§1)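 Ki derived from IC50 (11-point dilution, 520/495 nm emission ratio) for displacing a fluorescein-labelled PUMA peptide (2 or 20 nM). Target was 0.5 nM E. coli-expressed Halo-tagged BCL2 (1-207) or BCLXL (2-196), terbium-labelled on Halo. Incubation 2 h at 23°C in pH 7.5 Hepes with 150 mM NaCl and 5% DMSO.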

BCL2 G101V [1] = biological target: BCL2 G101V (Homo sapiens, UniProt P10415, G101V); experiment: TR-FRET competitive binding assay, BCL2 G101V; conditions: BCL2 G101V; Ki determined from IC50; read-out: TR_FRET EKI_Bcl2 G101V
Summary of the method: as §1

BCL2 G101V [2] = experiment: TR-FRET competitive binding assay, BCL2 G101V; parameters: species or system human; conditions: ratio Ki BCL2 G101V / Ki BCL2 WT
Summary of the method: as §1

KMS-12-PE Bcl-2 WT = experiment: In vitro cytotoxicity CellTiter-Glo 48 h, KMS-12-PE Bcl-2 WT; format: cell-based; conditions: C50 = concentration needed to reach 50% of the cellular viability
Summary of the method: (§2)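 Transduce KMS-12-PE with Bcl-2 WT or G101V lentivirus, then FACS-sort RFP-positive cells. Add compounds in an 11-point dilution series and incubate 48 h at 37 °C. Measure ATP-based luminescence with CellTiter-Glo and derive C50 (50% viability).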

BCL2 WT = BCL2 WT (Homo sapiens (Human), UniProt P10415); experiment: TR-FRET competitive binding assay, BCL2 WT; conditions: Ki determined from IC50, read-out: TR_FRET EKI_Bcl2 WT
Summary of the method: as §1

BCL2 F104I = BCL2 F104I (Homo sapiens, UniProt P10415, F104I); experiment: TR-FRET competitive binding assay, BCL2 F104I; conditions: Ki determined from IC50, read-out: TR_FRET EKI_Bcl2 F104I
Summary of the method: as §1

BCL2 D111A = BCL2 D111A (Homo sapiens, UniProt P10415, D111A); experiment: TR-FRET competitive binding assay, BCL2 D111A; conditions: Ki determined from IC50, read-out: TR_FRET EKI_Bcl2 D111A
Summary of the method: as §1

BCLXL WT = BCLXL WT (Homo sapiens (Human), UniProt Q07817); experiment: TR-FRET competitive binding assay, BCLXL WT; conditions: for Ki: BCLXL WT, Ki determined from IC50, read-out: TR_FRET EKI BclxL; for TR_FRET EKI BCLxL/WT selectivty ratio: ratio Ki BCLxL / Ki BCL2 WT
BCLXL WT, sequence (Q07817 other isoform, or with tags, fused parts or gaps): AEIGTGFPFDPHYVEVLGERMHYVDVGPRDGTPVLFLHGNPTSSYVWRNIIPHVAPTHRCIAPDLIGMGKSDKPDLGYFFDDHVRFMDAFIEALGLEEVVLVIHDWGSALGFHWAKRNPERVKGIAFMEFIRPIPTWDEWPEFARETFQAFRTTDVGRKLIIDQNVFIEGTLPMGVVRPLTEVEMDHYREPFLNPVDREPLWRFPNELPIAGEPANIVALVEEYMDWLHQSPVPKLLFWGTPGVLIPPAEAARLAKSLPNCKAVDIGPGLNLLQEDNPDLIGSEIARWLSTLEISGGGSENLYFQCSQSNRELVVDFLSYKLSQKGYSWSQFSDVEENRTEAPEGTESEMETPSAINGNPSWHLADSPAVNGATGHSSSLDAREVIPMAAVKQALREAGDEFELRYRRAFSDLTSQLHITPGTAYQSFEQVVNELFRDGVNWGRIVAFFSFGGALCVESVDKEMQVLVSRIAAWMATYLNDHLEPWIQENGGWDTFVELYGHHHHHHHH
Summary of the method: as §1

KMS-12-PE Bcl-2 G101V = experiment: In vitro cytotoxicity CellTiter-Glo 48 h, KMS-12-PE Bcl-2 G101V; format: cell-based; conditions: for Ratio (G101V/WT): C50 KMS-12-PE Bcl-2 G101V over C50 KMS-12-PE Bcl-2 WT; for IC50: CellTiter-Glo, 48 h, C50 = concentration needed to reach 50% of the cellular viability
Summary of the method: as §2

CYP3A4 = CYP3A4 (Homo sapiens (Human), UniProt P08684); experiment: CYP3A4 inhibition determination in hepatic human microsomes; format: in vitro ADME; conditions: LC/MS-MS of specific metabolite
CYP3A4, sequence (P08684 whole entry): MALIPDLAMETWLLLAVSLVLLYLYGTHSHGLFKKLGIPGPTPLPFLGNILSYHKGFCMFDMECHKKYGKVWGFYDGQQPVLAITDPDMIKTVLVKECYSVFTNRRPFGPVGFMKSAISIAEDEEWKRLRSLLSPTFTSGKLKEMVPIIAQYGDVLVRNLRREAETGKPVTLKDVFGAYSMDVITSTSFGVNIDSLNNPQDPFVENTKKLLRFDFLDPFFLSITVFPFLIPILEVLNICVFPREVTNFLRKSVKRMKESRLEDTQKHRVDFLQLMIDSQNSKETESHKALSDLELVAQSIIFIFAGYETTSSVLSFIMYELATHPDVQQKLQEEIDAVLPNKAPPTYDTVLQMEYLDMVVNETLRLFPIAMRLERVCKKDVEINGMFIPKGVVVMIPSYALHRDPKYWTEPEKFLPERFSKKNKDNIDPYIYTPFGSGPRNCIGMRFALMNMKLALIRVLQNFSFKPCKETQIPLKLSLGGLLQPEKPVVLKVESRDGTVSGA
Protocol: The inhibitory potential was determined on CYP3 Å4 enzyme using hepatic human microsomes. A range of concentrations (adapted based on the solubility) of the tested compound were incubated in presence of a substrate having a specific metabolite of CYP3 Å4 enzyme.
Then, the formation of the metabolite was quantified using LC/MS-MS analysis and a curve corresponding to the concentration of the metabolite in function of the concentration of the test compound allowed to the calculation of the IC50 value.

Ki (BCL2 D103Y) [nM]	Ki (BCL2 G101V [1]) [nM]	TR_FRET EKI G101V/WT selectivty ratio (BCL2 G101V [2])	Ki (BCL2 WT) [nM]	Ki (BCL2 F104I) [nM]	Ki (BCL2 D111A) [nM]	Ki (BCLXL WT) [nM]	TR_FRET EKI BCLxL/WT selectivty ratio (BCLXL WT)	IC50 (CYP3A4) [nM]	SMILES	IC50 (KMS-12-PE Bcl-2 WT) [µM]	Ratio (G101V/WT) (KMS-12-PE Bcl-2 G101V)	IC50 (KMS-12-PE Bcl-2 G101V) [µM]	IC50 (KMS-12-PE Bcl-2 WT; Homo sapiens, KMS-12-PE) [µM]	IC50 (KMS-12-PE Bcl-2 G101V; Homo sapiens, KMS-12-PE) [µM]
0.15	0.2	5.5	0.04	0.25	0.12	3.9	90.7	> 5000	Cc1c(N(C(=O)c2cc(-c3cc4c(cc3C(=O)N3Cc5ccccc5C[C@H]3CN3CCCCC3)CN(C(=O)Cc3ccc(OCCN5CCOC(C)C5)cc3F)CC4)n(C)c2C)c2ccc(O)cc2)cc(C#N)n1C (single isomer, unassigned) [Example 109, N-(5-cyano-1,2-dimethyl-1H-pyrrol-3-yl)-5-[2-(2-{2-fluoro-4-[2-((2R or S)-2-methylmorpholin-4-yl)ethoxy]phenyl}acetyl)-7-[(3S)-3-[(piperidin-1-yl)methyl]-1,2,3,4-tetrahydroisoquinoline-2-carbonyl]-1,2,3,4-tetrahydroisoquinolin-6-yl]-N-(4-hydroxyphenyl)-1,2-dimethyl-1H-pyrrole-3-carboxamide]	0.0048	4.38	0.022		
0.48	1.3	7.6	0.17			3.2	18.8	12000	Cc1c(N(C(=O)c2cc(-c3cc4c(cc3C(=O)N3Cc5ccccc5C[C@H]3C)CN(C(=O)c3ccccc3)CC4)n(C)c2C)c2ccc(O)cc2)cc(C#N)n1C [Example 25, 5-{2-benzoyl-7-[(3R)-3-methyl-1,2,3,4-tetrahydroisoquinoline-2-carbonyl]-1,2,3,4-tetrahydroisoquinolin-6-yl}-N-(5-cyano-1,2-dimethyl-1H-pyrrol-3-yl)-N-(4-hydroxyphenyl)-1,2-dimethyl-1H-pyrrole-3-carboxamide]		12.4		0.0063	0.0778
0.16	0.2	6.3	0.04	0.23	0.09	2.6	68.4	> 5000	Cc1c(N(C(=O)c2cc(-c3cc4c(cc3C(=O)N3Cc5ccccc5C[C@H]3CN3CCCCC3)CN(C(=O)Cc3ccc(OCCN5CCOCC5)cc3)CC4)n(C)c2C)c2ccc(O)cc2)cc(C#N)n1C [Example 67, N-(5-cyano-1,2-dimethylpyrrol-3-yl)-N-(4-hydroxyphenyl)-1,2-dimethyl-5-[2-(2-{4-[2-(morpholin-4-yl)ethoxy]phenyl}acetyl)-7-{[(3S)-3-(piperidin-1-ylmethyl)-3,4-dihydro-1H-isoquinolin-2-yl]carbonyl}-3,4-dihydro-1H-isoquinolin-6-yl]pyrrole-3-carboxamide]		5.2		0.0113	0.0562
0.17	0.3	6.8	0.04	0.25	0.08	2.4	60.0	18000	Cc1c(N(C(=O)c2cc(-c3cc4c(cc3C(=O)N3Cc5ccccc5C[C@H]3CN(C)C(C)C)CN(C(=O)Cc3ccc(OCCN5CCOCC5)cc3F)CC4)n(C)c2C)c2ccc(O)cc2)cc(C#N)n1C [Example 91, N-(5-cyano-1,2-dimethyl-1H-pyrrol-3-yl)-5-[2-(2-{2-fluoro-4-[2-(morpholin-4-yl)ethoxy]phenyl}acetyl)-7-[(3S)-3-{[methyl(propan-2-yl)amino]methyl}-1,2,3,4-tetrahydroisoquinoline-2-carbonyl]-1,2,3,4-tetrahydroisoquinolin-6-yl]-N-(4-hydroxyphenyl)-1,2-dimethyl-1H-pyrrole-3-carboxamide]		5.96		0.0084	0.0498
0.07	0.1	4.7	0.02			1.9	105.6	> 5000	Cc1c(N(C(=O)c2cc(-c3cc4c(cc3C(=O)N3Cc5ccccc5C[C@H]3CN3CCCC3)CN(C(=O)Cc3ccc(OCCN(C)C5CC5)cc3F)CC4)n(C)c2C)c2ccc(O)cc2)cc(C#N)n1C [Example 101, N-(5-cyano-1,2-dimethylpyrrol-3-yl)-5-{2-[2-(4-{2-[cyclopropyl(methyl)amino]ethoxy}-2-fluorophenyl)acetyl]-7-{[(3S)-3-(pyrrolidin-1-ylmethyl)-3,4-dihydro-1H-isoquinolin-2-yl]carbonyl}-3,4-dihydro-1H-isoquinolin-6-yl}-N-(4-hydroxyphenyl)-1,2-dimethylpyrrole-3-carboxamide]		4.86		0.0166	0.0806
0.11	0.3	6.3	0.04	0.15	0.09	4.1	102.5	> 5000	Cc1c(C(=O)N(c2ccc(O)cc2)c2cc(C#N)n(C(F)F)c2C)cc(-c2cc3c(cc2C(=O)N2Cc4ccccc4C[C@H]2CN2CCCC2)CN(C(=O)Cc2ccc(OCCN4CCOCC4)cc2F)CC3)n1C [Example 110]		5.02		0.0102	0.0512
